Data as given in ChEMBL document CHEMBL3596094, “Nucleoside Diphosphate Prodrugs: Nonsymmetric DiPPro-Nucleotides” (J Med Chem, 2015).
pEC50: −log10 of the molar value.

Legend:
[1] = system: Human immunodeficiency virus 2; assay: Antiviral activity against HIV2 ROD infected in human CEM/0 cells assessed as reduction in virus-induced giant cell formation incubated for 4 to 5 days; format: functional, organism-based; conditions: Human immunodeficiency virus 2, ISOLATE ROD, CCRF-CEM
[2] = system: Human immunodeficiency virus 1; assay: Antiviral activity against HIV1 3B infected in human CEM/0 cells assessed as reduction in virus-induced giant cell formation incubated for 4 to 5 days; format: functional, organism-based; conditions: Human immunodeficiency virus 1, 3B, CCRF-CEM
[3] = system: Human immunodeficiency virus 2; assay: Antiviral activity against HIV2 ROD infected in human thymidine kinase deficient CEM/TK- cells assessed as reduction in virus-induced giant cell formation incubated for 4 to 5 days; format: functional, organism-based; conditions: Human immunodeficiency virus 2, ISOLATE ROD
[4] = Cytotoxicity against human CEM/0 cells assessed as reduction in cell proliferation incubated for 4 to 5 days
[5] = Half life in human CEM/0 cell extracts incubated at 37 degC by RP-18-HPLC method; format: ADME, CCRF-CEM
[6] = Half life in pH 7.3 PBS incubated at 37 degC by RP-18-HPLC method; format: physicochemical
[7] = Half life in presence of pig liver esterase assessed as half life for DiPPro-NDP by RP-18-HPLC method; format: ADME
[8] = Half life in presence of pig liver esterase assessed as half life for hydrolysis R1 intermediate by RP-18-HPLC method; format: ADME; conditions: isolated protein

Structure (SMILES)	pEC50 [1]	pEC50 [2]	pEC50 [3]	CC50 ([4]; CEM/0 cells) [µM]	half-life [5] [h]	half-life [6] [h]	CC50 ([4]; ccrf-cem) [µM]	half-life [7] [s]	t1/2 [8] [h]
Cc1cn([C@H]2C[C@H](N=[N+]=[N-])[C@@H](CO)O2)c(=O)[nH]c1=O [ZIDOVUDINE]	6.31	7.36	< 3.60	> 250	–	–	–	–	–
CCCCCCCC(=O)Oc1ccc(COP(=O)(O)OP(=O)(O)OC[C@@H]2C=C[C@H](n3cc(C)c(=O)[nH]c3=O)O2)cc1	–	–	–	–	1.65	–	–	–	–
CCCCCCCCCC(=O)Oc1ccc(COP(=O)(O)OP(=O)(O)OC[C@@H]2C=C[C@H](n3cc(C)c(=O)[nH]c3=O)O2)cc1	–	–	–	–	0.833	–	–	–	–
CCCCCCCCCC(=O)Oc1ccc(COP(=O)(O)OP(=O)(O)OC[C@H]2O[C@@H](n3cc(C)c(=O)[nH]c3=O)C[C@@H]2N=[N+]=[N-])cc1	–	–	–	–	0.833	–	–	–	–
CCCCCCCCCCCC(=O)Oc1ccc(COP(=O)(OCc2ccc(OC(C)=O)cc2)OP(=O)(O)OC[C@@H]2C=C[C@H](n3cc(C)c(=O)[nH]c3=O)O2)cc1.N (stereo partly specified)	6.55	6.54	5.75	26	0.16	48	–	–	–
Cc1cn([C@H]2C=C[C@@H](CO)O2)c(=O)[nH]c1=O [STAVUDINE]	5.65	6.28	3.82	–	–	–	79	–	–
CCCCC(=O)Oc1ccc(COP(=O)(OCc2ccc(OC(=O)c3ccc(C(F)(F)F)cc3)cc2)OP(=O)(O)OC[C@H]2O[C@@H](n3cc(C)c(=O)[nH]c3=O)C[C@@H]2N=[N+]=[N-])cc1.N (stereo partly specified)	7.22	7.44	< 5.00	58	0.83	19	–	–	–
Cc1cn([C@H]2C=C[C@@H](COP(=O)(O)OP(=O)(O)OCc3ccc(OC(=O)c4ccc(C(F)(F)F)cc4)cc3)O2)c(=O)[nH]c1=O	–	–	–	–	11.5	–	–	–	–
CCCCCCCCCC(=O)Oc1ccc(COP(=O)(OCc2ccc(OC(=O)CCCCCCCCC)cc2)OP(=O)(O)OC[C@H]2O[C@@H](n3cc(C)c(=O)[nH]c3=O)C[C@@H]2N=[N+]=[N-])cc1	6.64	7.59	5.89	38	–	–	–	–	–
CC(=O)Oc1ccc(COP(=O)(OCc2ccc(OC(=O)c3ccc(C(F)(F)F)cc3)cc2)OP(=O)(O)OC[C@@H]2C=C[C@H](n3cc(C)c(=O)[nH]c3=O)O2)cc1.N (stereo partly specified)	5.86	6.14	< 5.00	51	0.03	15	–	–	–
CCCCCCCC(=O)Oc1ccc(COP(=O)(OCc2ccc(OC(=O)CCCC)cc2)OP(=O)(O)OC[C@@H]2C=C[C@H](n3cc(C)c(=O)[nH]c3=O)O2)cc1.N (stereo partly specified)	5.83	6.48	5.20	66	0.71	36	–	–	–
CCCCCCCC(=O)Oc1ccc(COP(=O)(O)OP(=O)(O)OC[C@H]2O[C@@H](n3cc(C)c(=O)[nH]c3=O)C[C@@H]2N=[N+]=[N-])cc1	–	–	–	–	1.65	–	–	–	–
CCCCCCCC(=O)Oc1ccc(COP(=O)(OCc2ccc(OC(C)=O)cc2)OP(=O)(O)OC[C@H]2O[C@@H](n3cc(C)c(=O)[nH]c3=O)C[C@@H]2N=[N+]=[N-])cc1.N (stereo partly specified)	6.80	7.38	< 5.00	29	0.02	33	–	12.6	–
CCCCCCCCCCCC(=O)Oc1ccc(COP(=O)(O)OP(=O)(O)OC[C@H]2O[C@@H](n3cc(C)c(=O)[nH]c3=O)C[C@@H]2N=[N+]=[N-])cc1	–	–	–	–	1.05	–	–	–	–
CCCCCCCC(=O)Oc1ccc(COP(=O)(OCc2ccc(OC(C)=O)cc2)OP(=O)(O)OC[C@@H]2C=C[C@H](n3cc(C)c(=O)[nH]c3=O)O2)cc1.N (stereo partly specified)	5.98	6.48	5.20	33	0.04	36	–	–	–
CCCCCCCCCCCC(=O)Oc1ccc(COP(=O)(OCc2ccc(OC(C)=O)cc2)OP(=O)(O)OC[C@H]2O[C@@H](n3cc(C)c(=O)[nH]c3=O)C[C@@H]2N=[N+]=[N-])cc1.N (stereo partly specified)	7.10	7.38	5.00	18	0.11	32	–	11.4	0.467
Cc1ccc(C(=O)Oc2ccc(COP(=O)(O)OP(=O)(O)OC[C@@H]3C=C[C@H](n4cc(C)c(=O)[nH]c4=O)O3)cc2)cc1	–	–	–	–	14.5	–	–	–	–
CCCCCCCCCC(=O)Oc1ccc(COP(=O)(OCc2ccc(OC(=O)CCCC)cc2)OP(=O)(O)OC[C@@H]2C=C[C@H](n3cc(C)c(=O)[nH]c3=O)O2)cc1.N (stereo partly specified)	5.93	6.44	6.08	20	1.05	40	–	15.6	–
Cc1cn([C@H]2C[C@H](N=[N+]=[N-])[C@@H](COP(=O)(O)OP(=O)(O)OCc3ccc(OC(=O)c4ccc(C(F)(F)F)cc4)cc3)O2)c(=O)[nH]c1=O	–	–	–	–	3.83	–	–	–	–
CCCCC(=O)Oc1ccc(COP(=O)(OCc2ccc(OC(=O)c3ccc(C)cc3)cc2)OP(=O)(O)OC[C@@H]2C=C[C@H](n3cc(C)c(=O)[nH]c3=O)O2)cc1.N (stereo partly specified)	5.84	6.52	5.00	14	0.96	50	–	–	–
CC(=O)Oc1ccc(COP(=O)(OCc2ccc(OC(=O)c3ccc(C)cc3)cc2)OP(=O)(O)OC[C@@H]2C=C[C@H](n3cc(C)c(=O)[nH]c3=O)O2)cc1.N (stereo partly specified)	5.83	6.54	5.00	11	0.04	58	–	–	–
CCCCCCCCCCCC(=O)Oc1ccc(COP(=O)(OCc2ccc(OC(=O)CCCC)cc2)OP(=O)(O)OC[C@H]2O[C@@H](n3cc(C)c(=O)[nH]c3=O)C[C@@H]2N=[N+]=[N-])cc1.N (stereo partly specified)	7.22	7.89	5.09	36	1.65	63	–	72	0.633
CCCCCCCCCCCC(=O)Oc1ccc(COP(=O)(OCc2ccc(OC(=O)CCCC)cc2)OP(=O)(O)OC[C@@H]2C=C[C@H](n3cc(C)c(=O)[nH]c3=O)O2)cc1.N (stereo partly specified)	6.55	7.00	6.89	30	1.91	52	–	–	–
CCCCCCCCCC(=O)Oc1ccc(COP(=O)(OCc2ccc(OC(C)=O)cc2)OP(=O)(O)OC[C@@H]2C=C[C@H](n3cc(C)c(=O)[nH]c3=O)O2)cc1.N (stereo partly specified)	5.87	6.48	5.63	15	0.04	40	–	8.4	–
CC(=O)Oc1ccc(COP(=O)(OCc2ccc(OC(=O)c3ccc(C(F)(F)F)cc3)cc2)OP(=O)(O)OC[C@H]2O[C@@H](n3cc(C)c(=O)[nH]c3=O)C[C@@H]2N=[N+]=[N-])cc1.N (stereo partly specified)	7.22	7.92	< 5.00	100	0.04	13	–	–	–
CCCCCCCCCCCC(=O)Oc1ccc(COP(=O)(O)OP(=O)(O)OC[C@@H]2C=C[C@H](n3cc(C)c(=O)[nH]c3=O)O2)cc1	–	–	–	–	1.15	–	–	–	–
CCCCCCCC(=O)Oc1ccc(COP(=O)(OCc2ccc(OC(=O)CCCC)cc2)OP(=O)(O)OC[C@H]2O[C@@H](n3cc(C)c(=O)[nH]c3=O)C[C@@H]2N=[N+]=[N-])cc1.N (stereo partly specified)	7.15	7.44	< 5.00	73	0.83	46	–	16.2	0.25
CCCCC(=O)Oc1ccc(COP(=O)(OCc2ccc(OC(=O)c3ccc(C(F)(F)F)cc3)cc2)OP(=O)(O)OC[C@@H]2C=C[C@H](n3cc(C)c(=O)[nH]c3=O)O2)cc1.N (stereo partly specified)	6.14	6.40	< 5.00	37	0.88	15	–	–	–
